Consider 51 substances from US10517889B2, “Modulators of SMAD7 expression” (Ionis Pharmaceuticals, Inc., priority 2017, dated 2019).

Strand notation (5' to 3'): a small letter for the sugar, then the base; units joined by * are phosphorothioate-linked, units joined directly phosphodiester-linked; [ ] holds rarer units or linkages, { } end groups; capitals alone tell only the bases. k = constrained ethyl (cEt); [5mC] = 5-methylcytosine; d = 2'-deoxy (DNA)

The test system of one series is human SMAD7 mRNA. The series is described as follows: Antisense inhibition of human SMAD7 mRNA expression in Hep3B cells by 3-10-3 cEt gapmers, 10,000 nM, electroporation (Example 2). The class given is cell-based. As to conditions: Hep3B cells, electroporation, 10,000 nM, approximately 24 hours; 3-10-3 cEt gapmers targeting SEQ ID NO: 3 and 4. Summed up:
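SMAD7 mRNA was measured by real-time PCR (RTS5062) with RiboGreen total-RNA normalization, about 24 h after 10,000 nM gapmer was delivered by electroporation into Hep3B cells at 20,000 per well. Gapmers were 16-mer 3-10-3 cEt, fully phosphorothioate; values are % inhibition versus untreated controls.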
Take “829940 (kG*kT*k[5mC]*dA*dG*dT*dT*dG*dG*dT*dT*dT*dG*kA*kG*kA; antisense) [compound 829940]”: the “% inhibition of SMAD7 mRNA expression” value is 14%. Consider “829941 (k[5mC]*kA*kG*dT*d[5mC]*dA*dG*dT*dT*dG*dG*dT*dT*kT*kG*kA; antisense) [compound 829941]”, for which the “% inhibition of SMAD7 mRNA expression” value turned out to be 8%. In the case of “829943 (kG*kG*kG*dA*dG*dA*d[5mC]*dT*d[5mC]*d[5mC]*dA*dG*dT*kT*k[5mC]*kG; antisense) [compound 829943]”, the “% inhibition of SMAD7 mRNA expression” value was found to be 43%.

The same series, now with this note: SMAD7 mRNA, Hep3B cells, electroporation with 10,000 nM antisense oligonucleotide, approximately 24 hours, primer probe set RTS5062, relative to untreated control cells.
For “829899 (antisense kA*k[5mC]*kG*dG*dG*d[5mC]*dA*dG*d[5mC]*dT*dG*d[5mC]*dT*kG*kA*kT) [compound 829899]”, the “% Inhibition” value is reported as 20%. Still for that read-out and setting: with “829900 (antisense k[5mC]*kA*k[5mC]*dG*dG*dG*d[5mC]*dA*dG*d[5mC]*dT*dG*d[5mC]*kT*kG*kA) [compound 829900]” the figure was 0%; with “829901 (antisense kA*kG*k[5mC]*dA*d[5mC]*dG*dG*dG*d[5mC]*dA*dG*d[5mC]*dT*kG*k[5mC]*kT) [compound 829901]”, 10%. With “829902 (antisense k[5mC]*kA*kG*d[5mC]*dA*d[5mC]*dG*dG*dG*d[5mC]*dA*dG*d[5mC]*kT*kG*k[5mC]) [compound 829902]”, the “% Inhibition” value was found to be 0%.

For the substance “829903 (antisense k[5mC]*kT*kG*dT*dT*dG*dA*dA*dG*dA*dT*dG*dA*k[5mC]*k[5mC]*kT) [compound 829903]”, the “% Inhibition” value is 25%. For “829904 (antisense kG*k[5mC]*kT*dG*dT*dT*dG*dA*dA*dG*dA*dT*dG*kA*k[5mC]*k[5mC]) [compound 829904]”, the “% Inhibition” value stood at 21%.

On to “829905 (antisense k[5mC]*kG*kG*d[5mC]*dT*dG*dT*dT*dG*dA*dA*dG*dA*kT*kG*kA) [compound 829905]”, for which the “% Inhibition” value came to 20%. “829906 (antisense k[5mC]*k[5mC]*kG*dG*d[5mC]*dT*dG*dT*dT*dG*dA*dA*dG*kA*kT*kG) [compound 829906]”: the “% Inhibition” value came out at 0%. Consider “829907 (antisense kA*k[5mC]*k[5mC]*dG*dG*d[5mC]*dT*dG*dT*dT*dG*dA*dA*kG*kA*kT) [compound 829907]”, for which the “% Inhibition” value is given as 23%. Still for that read-out and setting: with “829908 (antisense k[5mC]*kT*kA*d[5mC]*d[5mC]*dG*dG*d[5mC]*dT*dG*dT*dT*dG*kA*kA*kG) [compound 829908]” the figure was 1%; with “829909 (antisense k[5mC]*kG*kG*d[5mC]*dT*dA*d[5mC]*d[5mC]*dG*dG*d[5mC]*dT*dG*kT*kT*kG) [compound 829909]”, 34%. On the same count and under the same terms, the value for “829910 (antisense kG*kA*kG*dT*dT*dT*dG*d[5mC]*dA*dT*dG*dA*dA*kA*kA*kG) [compound 829910]” was 49%. Still for that read-out and setting: the value for “829911 (antisense k[5mC]*kG*kA*d[5mC]*d[5mC]*dA*dA*dA*dG*dA*dG*dT*dT*kT*kG*k[5mC]) [compound 829911]” was 52%; that for “829912 (antisense kA*kA*k[5mC]*dG*dA*d[5mC]*d[5mC]*dA*dA*dA*dG*dA*dG*kT*kT*kT) [compound 829912]” was 24%; that for “829913 (antisense k[5mC]*k[5mC]*kT*dT*dG*dG*dG*dT*dT*dA*dT*dG*dA*k[5mC]*kG*kG) [compound 829913]” was 40%. “829914 (antisense kA*k[5mC]*k[5mC]*dT*dT*dG*dG*dG*dT*dT*dA*dT*dG*kA*k[5mC]*kG) [compound 829914]”: the “% Inhibition” value was found to be 35%.

For “829915 (antisense kG*kG*kT*dA*d[5mC]*d[5mC]*dT*dT*dG*dG*dG*dT*dT*kA*kT*kG) [compound 829915]”, the “% Inhibition” value is given as 22%.

“829916 (antisense kG*kA*kA*dG*dA*dG*dT*dT*dA*dG*dG*dT*dG*kT*k[5mC]*kA) [compound 829916]”: the “% Inhibition” value worked out at 33%.

For the substance “829917 (antisense kA*kG*kT*dG*dT*dA*dT*dG*dA*dG*dT*dT*dG*kT*kA*kG) [compound 829917]”, the “% Inhibition” value came to 45%. As for “829918 (antisense kG*kA*kG*dT*dG*dT*dA*dT*dG*dA*dG*dT*dT*kG*kT*kA) [compound 829918]”, the “% Inhibition” value was determined as 53%. On the same count and under the same terms, the value for “829919 (antisense k[5mC]*kG*kA*dG*dT*dG*dT*dA*dT*dG*dA*dG*dT*kT*kG*kT) [compound 829919]” was 47%. “829920 (antisense kA*kT*kA*d[5mC]*dG*dA*dG*dT*dG*dT*dA*dT*dG*kA*kG*kT) [compound 829920]”: the “% Inhibition” value stood at 30%. Regarding “829921 (antisense kT*k[5mC]*kA*dT*dA*d[5mC]*dG*dA*dG*dT*dG*dT*dA*kT*kG*kA) [compound 829921]”, the “% Inhibition” value stood at 10%.

Consider “829922 (antisense kG*kT*kA*dT*d[5mC]*dA*dT*dA*d[5mC]*dG*dA*dG*dT*kG*kT*kA) [compound 829922]”, for which the “% Inhibition” value worked out at 56%. For “829923 (kA*kG*kT*dA*dT*d[5mC]*dA*dT*dA*d[5mC]*dG*dA*dG*kT*kG*kT; antisense) [compound 829923]”, the “% Inhibition” value was found to be 54%.

Consider “829924 (k[5mC]*kT*k[5mC]*dA*dT*dT*dG*dA*dG*d[5mC]*dT*dA*dA*kG*kA*kA; antisense) [compound 829924]”, for which the “% Inhibition” value is listed as 25%.

Regarding “829925 (kA*kT*kG*d[5mC]*dT*d[5mC]*dA*dT*dT*dG*dA*dG*d[5mC]*kT*kA*kA; antisense) [compound 829925]”, the “% Inhibition” value is reported as 37%. In the case of “829926 (k[5mC]*kA*kT*dG*d[5mC]*dT*d[5mC]*dA*dT*dT*dG*dA*dG*k[5mC]*kT*kA; antisense) [compound 829926]”, the “% Inhibition” value is 24%. As for “829927 (kA*kA*kG*dT*d[5mC]*dT*dA*dA*dA*d[5mC]*dA*dT*dG*k[5mC]*kT*k[5mC]; antisense) [compound 829927]”, the “% Inhibition” value worked out at 64%. Regarding “829928 (k[5mC]*kA*k[5mC]*dT*dA*d[5mC]*dA*dA*dT*dG*d[5mC]*dT*dA*kA*kA*kT; antisense) [compound 829928]”, the “% Inhibition” value stood at 26%. With “829929 (kA*k[5mC]*k[5mC]*dA*dA*dT*d[5mC]*dT*dT*dG*dT*dG*dT*kT*kT*kA; antisense) [compound 829929]”, the “% Inhibition” value was found to be 19%. On the same count and under the same terms, the value for “829930 (k[5mC]*kA*k[5mC]*d[5mC]*dA*dA*dT*d[5mC]*dT*dT*dG*dT*dG*kT*kT*kT; antisense) [compound 829930]” was 0%; that for “829931 (kA*kA*k[5mC]*dA*d[5mC]*d[5mC]*dA*dA*dT*d[5mC]*dT*dT*dG*kT*kG*kT; antisense) [compound 829931]” was 0%. With “829932 (kT*kG*kA*dT*dA*dA*d[5mC]*dA*d[5mC]*d[5mC]*d[5mC]*dA*dT*kA*kG*kA; antisense) [compound 829932]”, the “% Inhibition” value is listed as 41%.

For “829933 (kG*kT*kG*dA*dT*dA*dA*d[5mC]*dA*d[5mC]*d[5mC]*d[5mC]*dA*kT*kA*kG; antisense) [compound 829933]”, the “% Inhibition” value was determined as 38%. For “829934 (kT*kA*kG*dG*dT*dG*dA*dT*dA*dA*d[5mC]*dA*d[5mC]*k[5mC]*k[5mC]*kA; antisense) [compound 829934]”, the “% Inhibition” value amounted to 26%. On the same count and under the same terms, with “829935 (k[5mC]*kT*kA*dG*dG*dT*dG*dA*dT*dA*dA*d[5mC]*dA*k[5mC]*k[5mC]*k[5mC]; antisense) [compound 829935]” the figure was 0%. Still for that read-out and setting: with “829936 (k[5mC]*kA*kG*d[5mC]*dT*dA*dG*dG*dT*dG*dA*dT*dA*kA*k[5mC]*kA; antisense) [compound 829936]” the figure was 14%. As to “829937 (kT*kT*k[5mC]*dA*dG*d[5mC]*dT*dA*dG*dG*dT*dG*dA*kT*kA*kA; antisense) [compound 829937]”, the “% Inhibition” value amounted to 0%. For “829938 (kA*kT*kT*d[5mC]*dA*dG*d[5mC]*dT*dA*dG*dG*dT*dG*kA*kT*kA; antisense) [compound 829938]”, the “% Inhibition” value came to 17%.

As for “829939 (kA*k[5mC]*kA*dT*dT*d[5mC]*dA*dG*d[5mC]*dT*dA*dG*dG*kT*kG*kA; antisense) [compound 829939]”, the “% Inhibition” value worked out at 34%. As for “829944 (k[5mC]*k[5mC]*kA*dG*dT*dT*dA*dA*dT*d[5mC]*dA*dT*dT*kA*k[5mC]*kT; antisense) [compound 829944]”, the “% Inhibition” value was 23%. Still for that read-out and setting: with “829945 (kG*k[5mC]*k[5mC]*dA*dG*dT*dT*dA*dA*dT*d[5mC]*dA*dT*kT*kA*k[5mC]; antisense) [compound 829945]” the figure was 31%; with “829946 (kG*k[5mC]*kA*dG*d[5mC]*d[5mC]*dA*dG*dT*dT*dA*dA*dT*k[5mC]*kA*kT; antisense) [compound 829946]”, 44%. Take “829947 (kG*kG*kG*d[5mC]*dA*dG*d[5mC]*d[5mC]*dA*dG*dT*dT*dA*kA*kT*k[5mC]; antisense) [compound 829947]”: the “% Inhibition” value was 31%.

Turning to “829948 (k[5mC]*kG*kG*dG*d[5mC]*dA*dG*d[5mC]*d[5mC]*dA*dG*dT*dT*kA*kA*kT; antisense) [compound 829948]”, the “% Inhibition” value is 43%. With “829949 (k[5mC]*k[5mC]*kG*dG*dG*d[5mC]*dA*dG*d[5mC]*d[5mC]*dA*dG*dT*kT*kA*kA; antisense) [compound 829949]”, the “% Inhibition” value is 19%. On to “829950 (kT*k[5mC]*k[5mC]*dG*dG*dG*d[5mC]*dA*dG*d[5mC]*d[5mC]*dA*dG*kT*kT*kA; antisense) [compound 829950]”, for which the “% Inhibition” value is 43%.

The % Inhibition is the relative decrease from the control value, in per cent. Read a high % Inhibition as a strong effect.
